Assay results as given in publication PMC2696686 (Bioorganic & medicinal chemistry, 2009).

Key:
rDAT [1] = biological target: T1, rDAT (Rattus norvegicus, UniProt P23977); conditions: pattern previously seen; ref [7]; cited from earlier work
hDAT [2] = biological target: T2, hDAT (Homo sapiens, UniProt Q01959); assay: [3H]-dopamine uptake inhibition in N2A neuroblastoma cells expressing hDAT; type: cell-based; conditions: uptake IC50 higher than binding Ki
rDAT [3] = biological target: T1, rDAT; conditions: LLC-PK1 cells expressing rDAT
6Xhis-hDAT = 6Xhis-hDAT (Homo sapiens, UniProt Q01959); conditions: 100 μM (−)-cocaine; HEK 293 cells expressing 6Xhis-hDAT
hDAT [4] = biological target: T2, hDAT; assay: [3H]-WIN-35,428 binding inhibition in N2A neuroblastoma cells expressing hDAT
[5] = Storage stability of the radioligand by HPLC; type: physicochemical; conditions: 25 days at −20 °C in the dark; initial purity 99%

T2 sequence (Q01959 whole entry): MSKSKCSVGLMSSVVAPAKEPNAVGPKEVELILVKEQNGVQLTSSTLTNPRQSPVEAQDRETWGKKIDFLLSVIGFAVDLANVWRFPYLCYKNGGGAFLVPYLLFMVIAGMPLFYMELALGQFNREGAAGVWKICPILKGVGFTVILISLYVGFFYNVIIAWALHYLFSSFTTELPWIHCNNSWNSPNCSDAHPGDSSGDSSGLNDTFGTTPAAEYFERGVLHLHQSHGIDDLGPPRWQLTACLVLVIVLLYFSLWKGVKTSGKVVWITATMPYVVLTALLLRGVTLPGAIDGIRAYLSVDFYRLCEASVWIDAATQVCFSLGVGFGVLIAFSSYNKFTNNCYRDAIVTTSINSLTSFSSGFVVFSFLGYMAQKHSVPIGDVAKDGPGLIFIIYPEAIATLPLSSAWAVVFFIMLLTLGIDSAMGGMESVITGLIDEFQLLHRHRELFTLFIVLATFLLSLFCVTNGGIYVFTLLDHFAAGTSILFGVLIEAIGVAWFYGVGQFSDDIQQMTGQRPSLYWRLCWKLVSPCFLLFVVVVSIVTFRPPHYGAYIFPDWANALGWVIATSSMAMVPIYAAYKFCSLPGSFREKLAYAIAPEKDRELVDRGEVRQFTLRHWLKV
T1 sequence (P23977 whole entry): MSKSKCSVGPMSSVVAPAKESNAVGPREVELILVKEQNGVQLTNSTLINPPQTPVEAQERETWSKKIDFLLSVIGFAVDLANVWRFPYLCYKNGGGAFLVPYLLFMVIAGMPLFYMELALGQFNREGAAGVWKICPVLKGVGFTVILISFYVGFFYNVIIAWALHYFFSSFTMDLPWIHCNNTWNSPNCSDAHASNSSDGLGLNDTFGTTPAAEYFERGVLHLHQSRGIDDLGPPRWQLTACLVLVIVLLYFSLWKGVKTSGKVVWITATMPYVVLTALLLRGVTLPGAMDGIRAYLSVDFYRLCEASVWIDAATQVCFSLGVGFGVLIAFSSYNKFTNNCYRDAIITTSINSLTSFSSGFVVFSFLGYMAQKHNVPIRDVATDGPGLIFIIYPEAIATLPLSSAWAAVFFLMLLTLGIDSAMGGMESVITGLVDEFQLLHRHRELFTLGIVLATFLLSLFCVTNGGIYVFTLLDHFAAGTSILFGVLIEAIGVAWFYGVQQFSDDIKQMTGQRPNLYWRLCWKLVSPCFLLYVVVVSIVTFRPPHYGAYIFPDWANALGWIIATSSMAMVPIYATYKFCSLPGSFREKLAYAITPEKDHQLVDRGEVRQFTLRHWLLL
Sequence of 6Xhis-hDAT (Q01959 whole entry): as the sequence (Q01959 whole entry) above

## C[C@@H]1CN(CCCn2c3ccccc3c3ccccc32)C[C@H](C)N1 [rimcazole]
rDAT [1]
  Binding versus uptake inhibition value (pattern): essentially the same value

## CN1[C@@H]2CC[C@H]1C[C@@H](OC(c1ccccc1)c1ccccc1)C2 [benztropine]
rDAT [1]
  Binding versus uptake inhibition value (pattern): essentially the same value

## CCCC(C(=O)c1ccc(N)cc1)N1CCCC1 (stereo not drawn) [Compound 8, 1-(4-Aminophenyl)-2-pyrrolidin-1-yl-pentan-1-one]
hDAT [2]
  Uptake inhibition IC50 relative to binding Ki: essentially the same value

## COC(=O)[C@H]1[C@@H](OC(=O)c2ccccc2)C[C@@H]2CC[C@H]1N2C [cocaine, reference compound]
rDAT [3]; 100 μM (−)-cocaine
  Effect on [125I]-6 photolabeling of DAT: blocked
6Xhis-hDAT
  Effect on [125I]-6 photolabeling of DAT: blocked

## CCCC(C(=O)c1ccc(N=[N+]=[N-])c(I)c1)N1CCCC1 (stereo not drawn) [Compound 6, 1-(4-Azido-3-iodophenyl)-2-pyrrolidin-1-yl-pentan-1-one]
hDAT [4]; ratio of Ki values versus bupropion
  DAT affinity, fold higher than bupropion: 6 fold
hDAT [4]; ratio of Ki values versus pyrovalerone
  DAT affinity, fold less than pyrovalerone: 10 fold

## CCCC(C(=O)c1ccc(N=[N+]=[N-])c([125I])c1)N1CCCC1 (stereo not drawn) [[^125I]-6, [^125I]-1-(4-Azido-3-iodophenyl)-2-pyrrolidin-1-yl-pentan-1-one]
[5]
  Radiochemical purity after storage (stability): 92%
rDAT [3]; 30 nM radioligand, 1 h, 4°C, UV 254 nm, 45 s
  Incorporation into DAT on photoactivation (labeled protein of ~80 kDa): incorporation
